{
  "source": "patent US4307112A",
  "about": "“9-Deoxy-9A-methylene isosteres of PGI2 and process for their preparation” (Farmitalia Carlo Erba S.p.A., priority 1978, dated 1981)",
  "key": {"anaesthetized rat": {"system": "anaesthetized rat", "experiment": "hypotensive effect on the anaesthetized rat", "type": "in vivo", "settings": "PGI2 = 100"}, "platelet aggregation": {"system": "platelet aggregation", "experiment": "in vitro inhibitory effect on platelet aggregation induced by 10 μM ADP in platelet rich plasma", "type": "cell-based", "settings": "for IC50: read-out: in vitro antiaggregant effect IC50 (50% platelet aggregation inhibiting concentration)", "from_the_text": "IC50 = 50% platelet aggregation inhibiting concentration."}, "hamster": {"system": "hamster", "experiment": "in vitro luteolytic activity in the hamster compared with PGI2 at equally active antiaggregant doses"}, "[1]": {"settings": "acid; enol ether; listed as natural prostacyclin; cited from earlier work"}, "blood platelet": {"system": "blood platelet", "settings": "infused in man; cited from earlier work"}, "man": {"system": "man", "settings": "infused in man; cited from earlier work"}, "gastric mucous membrane": {"system": "gastric mucous membrane", "settings": "ulcers induced by e.g. acetyl salicylic acid and indomethacin; test animals, e.g. the rat; cited from earlier work"}, "test animals": {"system": "test animals", "settings": "cited from earlier work"}, "uterus [2]": {"system": "uterus", "settings": "person; cited from earlier work"}, "asthmatic patients": {"system": "asthmatic patients", "settings": "inhaled; cited from earlier work"}, "uterus [3]": {"system": "uterus", "settings": "monkey; cited from earlier work"}, "[4]": {"settings": "product of reaction of PGI2 with acid; cited from earlier work"}, "[5]": {"experiment": "antiulcerogenic activity compared with PGI2 at equi-active antiaggregant doses", "type": "in vivo"}, "[6]": {"settings": "10 μM ADP, platelet rich plasma"}},
  "note": "Entries after “also recorded” stand apart in the source; their conditions may differ. Like-named read-outs stand apart in the source and are kept apart here.",
  "data": [
    {"molecule": "5t,13t-11α,15S-dihydroxy-9a-deoxy-9a,7a-homo-dimethylene-prostacycla- 5,13-dienoic acid [(3)]", "values": [
      {"measurement": "hypotensive effect potency ratio", "setting": "anaesthetized rat", "result": 0.25},
      {"measurement": "in vitro antiaggregant effect IC50 (50% platelet aggregation inhibiting concentration)", "setting": "platelet aggregation; [6]", "result": "20 ηg/ml"}
    ]},
    {"molecule": "5c,13t-11α,15S-dihydroxy-9a-deoxy-9a,7a-homo-dimethylene-16-phenoxy- 17,18,19,20-tetranor,prostacycla-5,13-dienoic acid", "values": [
      {"measurement": "in vitro luteolytic activity relative to PGI2", "setting": "hamster", "result": 8, "unit": "times greater"}
    ]},
    {"molecule": "CCCCC[C@H](O)/C=C/[C@@H]1[C@H]2C/C(=C/CCCC(=O)O)O[C@H]2C[C@H]1O", "note": "[(1), 6,9α-oxide-11α,15(S)-dihydroxy-prosta-5(Z),13(E)-dienoic acid]", "values": [
      {"measurement": "chemical stability of natural prostacyclin", "setting": "[1]", "result": "extremely acid sensitive; also recorded: marked chemical instability"},
      {"measurement": "hypotensive effect potency ratio", "setting": "anaesthetized rat", "result": 100},
      {"measurement": "blood platelet anti-aggregant and disaggregant properties", "setting": "blood platelet", "result": "blood platelet anti-aggregant and disaggregant properties"},
      {"measurement": "hypotensive and vasodilator activity", "setting": "man", "result": "hypotensive and vasodilator activity"},
      {"measurement": "protection of gastric mucous membrane from ulcers", "setting": "gastric mucous membrane", "result": "able to protect the gastric mucous membrane from ulcers"},
      {"measurement": "luteolytic activity", "setting": "test animals", "result": "luteolytic activity"},
      {"measurement": "uterus stimulant action", "setting": "uterus [2]", "result": "uterus stimulant action"},
      {"measurement": "prevention of bronchoconstriction", "setting": "asthmatic patients", "result": "prevents aspecifically induced (e.g. by nebulized water or by effort) bronchocostriction"},
      {"measurement": "IC50", "setting": "platelet aggregation; [6]", "result": 0.001, "unit": "µg/mL"},
      {"measurement": "uterus stimulant action", "setting": "uterus [3]", "result": "uterus stimulant action"}
    ]},
    {"molecule": "dl-5,13t-11α,15S-dihydroxy-9a-deoxy-9a,9b-dimethylene-17-cyclohexyl- 18,19,20-trinor-prostacycla-5,13-dienoic acid", "values": [
      {"measurement": "in vitro luteolytic activity relative to PGI2", "setting": "hamster", "result": 5, "unit": "times greater"}
    ]},
    {"molecule": "CCCCC[C@H](O)/C=C/[C@@H]1[C@H]2C/C(=C/CCCC(=O)O)C[C@H]2C[C@H]1O", "note": "[(2), 5t,13t-11α,15S-dihydroxy-9a-deoxy-9a-methylene-prostacycla-5,13-dienoic acid]", "values": [
      {"measurement": "hypotensive effect potency ratio", "setting": "anaesthetized rat", "result": 1.15},
      {"measurement": "IC50", "setting": "platelet aggregation; Platelet", "result": 0.025, "unit": "µg/mL"}
    ]},
    {"molecule": "CCCCC[C@H](O)/C=C/[C@@H]1[C@@H](CC(=O)CCCCC(=O)O)[C@@H](O)C[C@H]1O", "note": "[6-keto-PGF1α]", "values": [
      {"measurement": "biological activity characteristic of natural prostacyclin", "setting": "[4]", "result": "almost none of the biological activity"}
    ]},
    {"molecule": "dl-5,13t-11α,15S-dihydroxy-9a-deoxy-7-nor-methylene-prostacycla-5,13-dienoic acid", "values": [
      {"measurement": "antiulcerogenic activity relative to PGI2", "setting": "[5]", "result": "ten times greater"}
    ]}
  ]
}
